Results on 16 molecules are retold here after patent US20220143042A1, “FUSED GLYCOSIDASE INHIBITORS” (Asceneuron SA, priority 2019, published 2022).

In the assay the target is T1, His-Tagged hOGA (Homo sapiens, UniProt O60502).
T1 sequence (O60502 1-916): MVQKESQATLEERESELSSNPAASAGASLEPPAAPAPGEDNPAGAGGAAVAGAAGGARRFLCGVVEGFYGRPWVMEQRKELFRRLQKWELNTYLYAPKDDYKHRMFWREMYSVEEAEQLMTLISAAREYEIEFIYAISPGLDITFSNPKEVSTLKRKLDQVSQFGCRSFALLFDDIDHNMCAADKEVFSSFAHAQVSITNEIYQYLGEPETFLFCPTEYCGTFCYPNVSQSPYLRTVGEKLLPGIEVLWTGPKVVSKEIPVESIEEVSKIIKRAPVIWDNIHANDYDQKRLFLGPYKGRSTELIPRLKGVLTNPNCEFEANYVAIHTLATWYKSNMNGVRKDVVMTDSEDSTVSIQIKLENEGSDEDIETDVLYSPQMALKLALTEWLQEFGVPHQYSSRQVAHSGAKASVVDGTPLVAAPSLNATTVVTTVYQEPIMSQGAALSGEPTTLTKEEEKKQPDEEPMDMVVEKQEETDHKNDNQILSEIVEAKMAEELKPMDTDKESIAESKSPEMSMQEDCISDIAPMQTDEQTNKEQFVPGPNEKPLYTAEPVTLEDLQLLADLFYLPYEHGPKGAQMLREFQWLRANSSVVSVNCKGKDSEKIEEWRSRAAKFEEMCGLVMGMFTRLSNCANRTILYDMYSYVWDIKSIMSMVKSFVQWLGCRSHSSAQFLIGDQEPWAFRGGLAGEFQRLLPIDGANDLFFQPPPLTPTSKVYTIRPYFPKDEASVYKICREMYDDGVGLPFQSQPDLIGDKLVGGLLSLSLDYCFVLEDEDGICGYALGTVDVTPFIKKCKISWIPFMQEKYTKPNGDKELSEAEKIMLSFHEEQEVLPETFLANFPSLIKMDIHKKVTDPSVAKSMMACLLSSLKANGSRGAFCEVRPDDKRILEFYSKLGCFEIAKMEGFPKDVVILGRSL
As to the kind of experiment: Human O-GlcNAcase enzyme inhibition assay. The class given is biochemical. The following applies: OGA enzyme inhibition assay; FL-GlcNAc substrate, 60 min at room temperature, pH 6.5. The protocol:
EXAMPLE B01: HUMAN O-GLCNACASE ENZYME INHIBITION ASSAY
5 μl of the appropriate concentration of a solution of inhibitor in Mcllvaine's Buffer (pH 6.5) in 2% DMSO (for a dose response curve calculation) is added into each well of a 384-well plate (Greiner, 781900). Then, 20 nM of His-Tagged hOGA and 10 μM of FL-GlcNAc (Fluorescein mono-beta-D-(2-deoxy-2-N-acetyl) glucopyranoside; Marker Gene Technologies Inc, M1485) were added to the 384-well plate for a final volume of 20 μl. After incubation for 60 min at room temperature, the reaction was terminated by the addition of 10 μL of stop buffer (200 mM glycine, pH 10.75). The level of fluorescence (λexc 485 nm; (λemm 520 nm) was read on a PHERAstar machine. The amount of fluorescence measured was plotted against the concentration of inhibitor to produce a sigmoidal dose response curve to calculate an IC50. All individual data was corrected by subtraction of the background (Thiamet 3 uM=100% inhibition) whilst 0.5% DMSO was considered as the control value (no inhibition).

Molecules are shown by their SMILES.

Broadly, the IC50 is the concentration that gives 50% inhibition. Lower therefore signals greater potency in that assay.

Regarding `CC(c1ccc2scnc2c1)N1CCc2c([Si](C)(C)C)nn(C)c2CC1` (racemic) [Example 48, 5-(1-(1-METHYL-3-(TRIMETHYLSILYL)-4,5,7,8-TETRAHYDROPYRAZOLO[3,4-D]AZEPIN-6(1H)-YL)ETHYL)BENZO[D]THIAZOLE], the concentration for half-maximal inhibition (IC50) is less than 50 nM.
`CC(=O)Nc1ncc(CN2CCc3nc(N)sc3CC2)s1` (racemic) [Example 151, N-(5-((2-AMINO-4,5,7,8-TETRAHYDRO-6H-THIAZOLO[4,5-D]AZEPIN-6-YL)METHYL)THIAZOL-2-YL)ACETAMIDE] returned a 50% inhibitory concentration (IC50) of 50 to 200 nM.
As for `CC(c1ccc2scnc2c1)N1CCc2nn(C)c(-c3ccccc3)c2CC1` (racemic) [Example 46, 5-(1-(2-METHYL-3-PHENYL-4,5,7,8-TETRAHYDROPYRAZOLO[3,4-D]AZEPIN-6(2H)-YL)ETHYL)BENZO[D]THIAZOLE], the figure is less than 50 nM; as for `CC(=O)Nc1ncc(CN2CCc3nc(C)sc3CC2)s1` (racemic) [Example 26, N-(5-((2-METHYL-4,5,7,8-TETRAHYDRO-6H-THIAZOLO[4,5-D]AZEPIN-6-YL)METHYL)THIAZOL-2-YL)ACETAMIDE], less than 50 nM; as for `CC(=O)Nc1ncc(CN2CCc3cn(C)nc3CC2)s1` (racemic) [Example 23, N-(5-((2-METHYL-4,5,7,8-TETRAHYDROPYRAZOLO[3,4-D]AZEPIN-6(2H)-YL)METHYL)THIAZOL-2-YL)ACETAMIDE], less than 50 nM.
`Cc1nc2c(s1)CCN(C(C)c1ccc3c(c1)OCC3)CC2` (racemic) [Example 20, 6-(1-(2,3-DIHYDROBENZOFURAN-6-YL)ETHYL)-2-METHYL-5,6,7,8-TETRAHYDRO-4H-THIAZOLO[4,5-D]AZEPINE] yielded an IC50 of less than 50 nM.
In turn, `CC(c1ccc2scnc2c1)N1CCc2nc[nH]c2CC1` (racemic) [Example 161] had a half-inhibitory concentration (IC50) of 50 to 200 nM.
Under `CC(=O)Nc1nc2c(s1)CCN(C(C)c1ccc3scnc3c1)CC2` (single isomer, unassigned) [Example 162] stands less than 50 nM.
`CC(c1ccc2scnc2c1)N1CCc2c(-c3ccccc3)nn(C)c2CC1` (racemic) [Example 47, 5-(1-(1-METHYL-3-PHENYL-4,5,7,8-TETRAHYDROPYRAZOLO[3,4-D]AZEPIN-6(1H)-YL)ETHYL)BENZO[D]THIAZOLE]: the half-maximal inhibitory concentration (IC50) was less than 50 nM.
Under `CC(=O)Nc1nc2c(s1)CCN(C(C)c1ccc3scnc3c1)CC2` (single isomer, unassigned) [Example 163] stands 200 to 1000 nM.
Under `CC(=O)Nc1ncc(CN2CCc3nncn3CC2)s1` (racemic) [Example 154] stands less than 50 nM; under `CC(=O)Nc1nc2c(s1)CCN(C(C)c1ccc3scnc3c1)CC2` (racemic) [Example 16], less than 50 nM.
Under `Cc1nc2c(s1)CCN(C(C)c1ccc3scnc3c1)CC2` (racemic) [Example 14, 6-(1-(BENZO[D]THIAZOL-5-YL)ETHYL)-2-METHYL-5,6,7,8-TETRAHYDRO-4H-THIAZOLO[4,5-D]AZEPINE] stands less than 50 nM.
`CC(c1ccc2scnc2c1)N1CCc2cn(C)nc2CC1` (racemic) [Example 1, 5-(1-(2-METHYL-4,5,7,8-TETRAHYDROPYRAZOLO[3,4-D]AZEPIN-6(2H)-YL)ETHYL)BENZO[D]THIAZOLE] gave an IC50 of less than 50 nM.
`CC(c1ccc2scnc2c1)N1CCCc2nn(C)cc2C1` (racemic) [Example 165, 5-(1-(2-METHYL-2,6,7,8-TETRAHYDROPYRAZOLO[4,3-C]AZEPIN-5(4H)-YL)ETHYL)BENZO[D]THIAZOLE] gave an IC50 of 200 to 1000 nM.
Under `CC(=O)Nc1nc2c(s1)CN(C(C)c1ccc3scnc3c1)CCC2` (racemic) [Example 152] stands 200 to 1000 nM.
